Paper PMC3158555, “Cofactor-mediated conformational control in the bifunctional kinase/RNase Ire1” (BMC Biology, 2011)

How the values were obtained:
[1] = target: T1, Ire1KR32 (cytosolic kinase/RNase portion of Ire1) (Saccharomyces cerevisiae, UniProt P32361); experiment: RNase activation, hyperbolic fit of kobs versus cofactor ([…]P-RNA hairpin); assay type: biochemical; conditions: 3 µM Ire1KR32, 2 mM Mg2+, pH 7.4, 30 °C; allosteric activator in kinase ATP pocket
T1 construct: cytoplasmic kinase + RNase domains with N-terminal 32-aa extension from the linker to the transmembrane segment; GST fusion (pGEX-6P-2) in E. coli, GST cleaved by PreScission; autophosphorylated (~20 phosphates); homo-oligomerizes
T1 sequence (P32361 641-1115): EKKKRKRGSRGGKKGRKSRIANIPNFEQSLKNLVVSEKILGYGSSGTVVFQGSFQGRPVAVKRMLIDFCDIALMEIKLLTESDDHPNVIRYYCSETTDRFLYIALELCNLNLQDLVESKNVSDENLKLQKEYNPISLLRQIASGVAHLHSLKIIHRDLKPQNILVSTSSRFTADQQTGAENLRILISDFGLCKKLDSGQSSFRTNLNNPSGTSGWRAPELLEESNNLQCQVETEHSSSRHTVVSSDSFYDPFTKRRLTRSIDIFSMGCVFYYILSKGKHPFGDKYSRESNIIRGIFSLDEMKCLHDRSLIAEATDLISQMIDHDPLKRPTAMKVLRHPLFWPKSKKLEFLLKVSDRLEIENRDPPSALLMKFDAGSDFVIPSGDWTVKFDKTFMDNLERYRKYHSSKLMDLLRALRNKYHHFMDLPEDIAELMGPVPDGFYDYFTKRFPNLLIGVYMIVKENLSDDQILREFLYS

[2] = target: T1, Ire1KR32 (cytosolic kinase/RNase portion of Ire1); experiment: inhibition of ADP-stimulated RNase cleavage of […]-RNA hairpin; assay type: biochemical; conditions: competition with 0.2 mM ADP, 3 µM Ire1KR32, 2 mM Mg2+, pH 7.4, 30 °C; kinase ATP pocket; paper prints mmol for mM

Row | Structure (SMILES) | Kcof (apparent cofactor binding constant) [1] | Ki [2] [mM]
1 | Nc1ncnc2c1ncn2[C@@H]1O[C@H](COP(=O)(O)OP(=O)(O)O)[C@@H](O)[C@H]1O [ADP] | ADP bound with an apparent affinity similar to that of ATP | –
2 | Nc1ncnc2c1ncn2[C@@H]1O[C@H](COP(=O)(O)OP(=O)(O)S)[C@@H](O)[C@H]1O (some centres unmarked) [ADPβS] | – | 0.2 ± 0.07
3 | Nc1ncnc2c1ncn2[C@@H]1O[C@H](COP(=O)(O)O)[C@@H](O)[C@H]1O [AMP] | the apparent affinity for AMP was tenfold lower than that observed for ATP | –
4 | c1cc(Nc2cc(C3CC3)[nH]n2)nc(Nc2ccc3[nH]cnc3c2)n1 [APY29] | APY24 and APY29 activated Ire1 as well as or better than ADP | –
5 | Nc1ncnc2c1ncn2[C@@H]1O[C@H](COP(=O)(O)OP(=O)(O)OP(=O)(O)O)[C@@H](O)[C@H]1O [ATP] | the apparent affinity for AMP was tenfold lower than that observed for ATP | 0.1 ± 0.04
6 | Nc1ncnc2c1ncn2[C@@H]1O[C@H](COP(=O)(O)OP(=O)(O)OP(O)(O)=S)[C@@H](O)[C@H]1O [ATPγS] | ATPγS bound to Ire1 slightly more weakly than ATP | –
7 | CCN(CC)CCNC(=O)c1c(C)[nH]c(/C=C2\C(=O)Nc3ccc(F)cc32)c1C [sunitinib] | activated Ire1KR32 to a similar extent as AMP and ATP | –
